Reference: patent publication US7579338B2, “Methods and compositions for treating atheroma, tumors and other neoplastic tissues” (Pharmacyclics, Inc., priority 1999, dated 2009)

How the values were obtained:
[1] = Oxidation of NADPH under approximate physiologic conditions (HPLC, NADP+ formation); type: biochemical; settings: substrate NADPH, pH 7.5, Michaelis-Menton fit, triplicate; for Km: read-out: KM (dissociation or Michaelis constant), NADPH oxidation
Protocol: The following stock solutions were prepared: • Stock NADPH (Sigma N 7505) (prepared fresh daily): 12.2 mg/(10 mL. 833.4 mg/mmol)=1.46 mM • Stock GdTex: 5.76 mg/(10.0 mL water. 1148 mg/mmol)=501.7 μM • Stock 4× Buffer: 200 mM HEPES, pH 7.5; 400 mM NaCl; 0.4 mM EDTA • Stock LuTex: 5.02 mg/(10.0 mL water×1166 mg/mmol)=431 μM These were combined to form the reaction mixtures analyzed by HPLC, for example: • 250 μL 4× Buffer, 250 μL NADPH Stock, 427 μL Water, 72.7 μL GdTex Stock • 250 μL 4× Buffer, 250 μL NADPH Stock, 457.7 μL Water, 42.3 μL LuTex Stock The HPLC Method employed was as follows: 1. HPLC Operating Parameters: • System—HPLC system capable of delivering gradient mobile phase • Detector wavelength—260 nm • Injection Volume—20 μL • Pressure—ca: 2000 psi • Column Temperature—40° C. • Column—Nucleogel DEAE 60-7 125×4 mm 2. Mobile Phase: • Solution A—0.75 M KH2PO4, pH 3.8 • Solution B—0.016 M KH2PO4, pH 3.8
A reaction mixture was prepared containing NADPH, water and sufficient buffer to maintain the solution at pH 7.5. Texaphyrin, 0.1 molar equivalent to the NADPH, was added to this reaction mixture, vortexed briefly, and then the solution placed in the HPLC sampler for immediate injection. Further injections were made at appropriate time points, whereupon the integrated peak areas of both NADPH and NADP^+ were measured and used to calculate the extent of reaction at a given time point.
Provided that the amount of texaphyrin was sufficiently low relative to substrate, the percentage of NADP^+ generated by the reaction plotted against time initially gave a straight line. (For LuTex, it was necessary to drop the catalyst concentration to ca. 0.05 equivalent.) The slope of initial time points (eg., plotting as mM concentration vs time in hours) provided a rate which was used as a point in a saturation (Michaelis-Menton) plot. This process was repeated at various concentrations of NADPH. Data (in triplicate) was fitted to the Michaelis-Menton equation (initial reaction velocity/catalyst concentration)=(kcat×substrate concentration)/(KM+substrate concentration), where substrate is NADPH, catalyst is texaphyrin complex, kcat is the first-order rate constant for the catalyst, and KM is the dissociation (or Michaelis) constant for the catalyst/substrate complex. For GdTex, kcat=0.049±0.003 min^−1 and KM=1.69±0.17 mM. For LuTex, kcat=0.119±0.011 min^−1 and KM=0.56±0.20 mM.
1B. By following the procedure of Example 1A using a single concentration of NADPH and employing 0.1 equivalent of test compound, the results illustrated in FIG. 16 were obtained.

[2] = system: MES-SA human uterine cells; assay: Proliferation of MES-SA cells with ascorbate and texaphyrin (MTT); type: cell-based; settings: for cytotoxic effect of texaphyrin with 333 μM ascorbate: texaphyrin 25-100 μM, 5 hours exposure, MTT after 72 hours; for cytotoxic effect of texaphyrin at lower concentrations of ascorbate: ascorbate below 333 μM (111 μM and 62.5 μM for GdTex); for cytotoxic/inhibitory effect of texaphyrin in the absence of ascorbate: no ascorbate, texaphyrin up to 100 μM
Protocol: The proliferation of MES-SA human uterine cells (Harker, W. G.; MacKintosh, F. R.; Sikic, B. I. Cancer Res. 1983, 43, 4943-4950) grown in RPMI-1640 medium in the presence of ascorbate or complex was used to assess the formation of hydrogen peroxide under cell culture conditions.
(§1) 5A. Materials and Methods. MES-SA cells were allowed to adhere to (4) 96-well microtiter plates (4000 cells per well) overnight in 160 μL RPMI medium. Stock ascorbate 3.0 mM in medium (80 μL) was serially diluted (1:3) in rows B through F (discarding the final 80 μL). Row G was used for no-ascorbate control. Stock solutions of GdTex (2 mM in 5% mannitol) diluted in medium and 5% mannitol were prepared and added to the plates to give a final volume of 200 μL in all wells. Columns 2 and 3 contained 100 μM GdTex; columns 4 and 5 contained 75 μM GdTex, columns 6 and 7 contained 50 μM GdTex; columns 8 and 9 contained 25 μM GdTex; and columns 10 and 11 contained no GdTex (all concentrations final). Final mannitol concentration was 0.25% in all wells. The plates were incubated at 37 C under a 5% CO2/95% air atmosphere. Complex-containing medium was exchanged for fresh medium after 5 hours, and plates were incubated an additional 72 hours prior to analysis for viability using the tetrazolium dye, MTT (Mosmann, T. J. Immunol. Methods 1983, 65, 55-63). In brief, 20 μL MTT dye (Sigma Chemical, St. Louis, Mo., catalogue no. M 2128, 5 mg/mL solution in phosphate buffered saline) was added to cells in media to give a final volume of 200 μL. The plates were incubated at 37° C. for ca. 2 hours, whereupon the media was removed and isopropyl alcohol (100 μL/well) was added. Plates were vortexed for ca. 3 minutes to dissolve MTT formazan, then read on a microplate reader at 560-650 nm. Plate absorbances were normalized to wells containing neither ascorbate nor GdTex to allow plate to plate comparison. Data for each concentration of GdTex and ascorbate is the average of eight wells.
The proliferation of MES-SA human uterine cells grown in RPMI-1640 medium in the presence of ascorbate and LuTex was used to assess the production of hydrogen peroxide under cell culture conditions following the protocol outlined in the previous example.

[3] = system: EMT-6 mouse mammary sarcoma cells; assay: Proliferation of EMT-6 cells with NADPH and texaphyrin (MTT); type: cell-based; settings: for inhibitory effect of texaphyrin with 1000 μM and 333 μM NADPH: NADPH 1000 μM and 333 μM; for inhibitory effect of texaphyrin at lower concentrations of NADPH: NADPH below 333 μM; for inhibitory effect of texaphyrin in the absence of NADPH: no NADPH
Protocol: as §1
(§2) The proliferation of EMT-6 mouse mammary sarcoma (Rockwell, S. C., et al., J. Natl. Cancer Inst. 1972, 49, 735-749) cells grown in RPMI-1640 medium in the presence of NADPH and motexafin lutetium was used to assess the production of hydrogen peroxide under cell culture conditions following the protocol outlined in the previous example.
as §2, with “GdTex” for “motexafin lutetium”

Row | SMILES | kcat (first-order rate constant for the catalyst), NADPH oxidation [1] | Km [1] | cytotoxic effect of texaphyrin with 333 μM ascorbate [2] | cytotoxic effect of texaphyrin at lower concentrations of ascorbate [2] | cytotoxic/inhibitory effect of texaphyrin in the absence of ascorbate [2] | inhibitory effect of texaphyrin with 1000 μM and 333 μM NADPH [3] | inhibitory effect of texaphyrin at lower concentrations of NADPH [3] | inhibitory effect of texaphyrin in the absence of NADPH [3]
1 | CC(=O)[O-].CC(=O)[O-].CCc1c(CC)c2cc3nc(cnc4cc(OCCOCCOCCOC)c(OCCOCCOCCOC)cc4ncc4nc(cc1[n-]2)C(CCCO)=C4C)C(C)=C3CCCO.O.[Gd+3] [GdTex, motexafin gadolinium] | 0.049 ± 0.003 min⁻¹ | 1.69 ± 0.17 mM | complete cytotoxicity | dose-response was observed | no cytotoxic effect | dose-response was observed | No inhibitory effect | no inhibitory effect
2 | CC(=O)[O-].CC(=O)[O-].CCc1c(CC)c2cc3nc(cnc4cc(OCCOCCOCCOC)c(OCCOCCOCCOC)cc4ncc4nc(cc1[n-]2)C(CCCO)=C4C)C(C)=C3CCCO.O.[Lu+3] [LuTex, motexafin lutetium] | 0.119 ± 0.011 min⁻¹ | 0.56 ± 0.2 mM | dose-response was observed | No inhibitory effect | no inhibitory effect | dose-response was observed | No inhibitory effect | no inhibitory effect
